According to article PMC10388327, “Dual Piperidine-Based Histamine H3 and Sigma-1 Receptor Ligands in the Treatment of Nociceptive and Neuropathic Pain” (Journal of Medicinal Chemistry, 2023):
Structures can show the parent of a compound that is named as a salt. Where two headings read alike, the source gives them in different places.

Columns and labels:
[1] = molecular target: T1, sigma-2 receptor (σ2R) (Rattus norvegicus, UniProt Q5U3Y7); assay: σ2R radioligand binding ([3H]DTG); conditions: read-out: σ2R Ki [nM] x̄ [CI 95%]; mean [CI 95%]
T1 construct: The thawed membrane preparation of rat liver was incubated; from tissue; host or cells: Sprague-Dawley rat liver membranes
T1 sequence (Q5U3Y7 1-176): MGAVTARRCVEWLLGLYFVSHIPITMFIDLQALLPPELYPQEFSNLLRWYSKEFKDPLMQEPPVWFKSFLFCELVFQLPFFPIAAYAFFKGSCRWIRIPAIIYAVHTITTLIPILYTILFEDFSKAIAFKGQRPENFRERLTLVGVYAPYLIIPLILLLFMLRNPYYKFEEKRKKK

[2] = molecular target: T2, sigma-1 receptor (σ1R) (Cavia porcellus, UniProt Q60492); assay: σ1R radioligand binding ([3H](+)-pentazocine); set-up: species or system guinea pig; conditions: read-out: σ1R Ki [nM] x̄ [CI 95%]; mean [CI 95%]
T2 construct: The thawed membrane preparation of the guinea pig brain cortex was incubated; from tissue; host or cells: male Dunkin-Hartley guinea pig brain cortex membranes
T2 sequence (Q60492 whole entry): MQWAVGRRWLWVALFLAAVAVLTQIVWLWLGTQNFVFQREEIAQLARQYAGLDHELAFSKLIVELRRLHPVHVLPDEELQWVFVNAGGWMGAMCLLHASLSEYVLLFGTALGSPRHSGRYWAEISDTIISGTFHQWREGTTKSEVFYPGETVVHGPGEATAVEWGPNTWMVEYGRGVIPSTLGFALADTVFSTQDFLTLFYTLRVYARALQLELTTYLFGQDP

[3] = tested on: sigma-1 receptor (σ1R); assay: σ1R radioligand binding ([3H](+)-pentazocine); set-up: species or system guinea pig; conditions: ratio of σ2R Ki to σ1R Ki
[4] = molecular target: T3, human recombinant histamine H3R (Homo sapiens, UniProt Q9Y5N1); assay: hH3R radioligand binding ([3H]Nα-methylhistamine depletion assay); conditions: read-out: hH3R Ki [nM] x̄ [CI 95%]; mean [CI 95%]; HEK-293 cells
T3 construct: expressed in transfected cells
T3 sequence (Q9Y5N1 whole entry): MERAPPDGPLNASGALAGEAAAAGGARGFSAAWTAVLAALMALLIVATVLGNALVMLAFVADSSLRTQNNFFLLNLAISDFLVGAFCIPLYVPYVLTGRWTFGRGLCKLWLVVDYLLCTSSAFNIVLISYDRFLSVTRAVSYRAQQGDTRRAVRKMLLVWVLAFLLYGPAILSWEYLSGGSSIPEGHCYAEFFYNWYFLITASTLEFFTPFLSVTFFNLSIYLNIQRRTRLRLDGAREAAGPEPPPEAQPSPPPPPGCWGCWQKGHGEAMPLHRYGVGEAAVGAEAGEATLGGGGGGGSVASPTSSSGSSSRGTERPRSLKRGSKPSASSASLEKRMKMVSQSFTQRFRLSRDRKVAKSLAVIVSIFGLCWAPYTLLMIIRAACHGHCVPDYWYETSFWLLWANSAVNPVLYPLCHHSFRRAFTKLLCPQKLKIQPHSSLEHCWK

[5] = tested on: mice; assay: loperamide-induced antinociception (paw pressure, struggle response latency); assay type: in vivo, Female CD1 mice; conditions: for reversal of potentiation of loperamide-induced antinociception by S1RA and 12: PRE-084 75 μg i.pl., naloxone-methiodide 2 mg/kg s.c.
[6] = pKa determination by potentiometric titration; assay type: physicochemical; conditions: for pKa: aqueous solution, experimental, potentiometric titration
Method: In addition, we tested the amino alcohol fragments of these compounds to carefully monitor the influence of individual protonated nitrogen atoms on the obtained pKa values (Figure 4). […] Based on a previously modified potentiometric procedure,[27],[28] a series of titrations were performed, and the pKa values were determined using the Kostrowicki and Liwo algorithm.[29],[30] […] That explains the surprising result of free base crystallization attempts where iodide salt was obtained instead of the neutral form. On the other hand, in the same environment, KSK94 exists in two forms: the monoprotonated form [HL^+] (20.56%) and the free ligand [L] (77.72%, Figure 5). […] KSK68 can be characterized as a basic ligand with pKa1 = 4.9 (pyridine N) and pKa2 = 8.4 (piperidine N). The pKa values are consistent with those determined by the same procedure for the corresponding amino alcohol 3-(4-(pyridin-4-yl)piperidin-1-yl)propan-1-ol (Figure 4). […] A similarly low pKa2 value for the N7 piperazine nitrogen atom was also determined for the corresponding amino alcohol 3-(4-(pyridin-4-yl)piperazin-1-yl)propan-1-ol (Figure 4), which is in agreement with the value obtained for 1-phenyl-4-methyl piperazine reported in the literature.[31] […] The lowest value was determined for 4-nitrophenyl, and the highest was for 2-methylphenyl derivatives.[32]
The potentiometric microtitration was performed in a thermostated 20 mL cell using a CerkoLab microtitration unit fitted with a pH electrode (Hydromet ERH-13-6). The electrode was calibrated with the use of buffer solutions: pH = 4.00, 7.00, and 10.00. Titrant T (0.1 M KOH) was standardized according to the general analytical procedure and protected from carbon dioxide. Double distilled water with a conductivity of about 0.18 mS/cm was used to prepare all aqueous solutions. DMSO (HPLC grade, 99.5%) was supplied by Sigma Aldrich. The concentration of the titrant solution (D) was 0.0025–0.005 M. The solubilization procedure was follows: The appropriate amount of KSK compound was dissolved in 1 mL 0.1 M HCl and 1 mL DMSO to prepare a 25 mL stock solution. The developed solubilization system can be recommended for poorly soluble derivatives. The analytical procedure was a follows: volume V0 = 4.5 mL of titrant D was titrated with 0.1 M titrant T using the CerkoLab System equipped with a 5 mL syringe pump.

[7] = parallel artificial membrane permeability assay (PAMPA); assay type: in vitro ADME; conditions: 100 μM in PBS pH 7.4, RT, read-out: Pe (permeability coefficient)
[8] = Figure 5, species distribution from titration curves
[9] = aqueous solution at physiological pH

CC(C)(C)c1ccc(OCCCCN2CCN(c3cnccn3)CC2)cc1 [Compound 16, 2-(4-(4-(4-(tert-Butyl)phenoxy)butyl)piperazin-1-yl)pyrazine Oxalate]
Ki [1]: 27 nM | Ki [2]: 7.6 nM | σ2/σ1 ratio [3]: 3.6

c1ccc(-c2ccc(OCCCN3CCCC3)cc2)cc1 [Compound 4, 1-(3-([1,1′-Biphenyl]-4-yloxy)propyl)pyrrolidine Oxalate]
Ki [1]: 65 nM | Ki [2]: 24 nM | σ2/σ1 ratio [3]: 2.7 | Ki [4]: 19.5 nM

Cl.O=C(OCCN1CCOCC1)C1(c2ccccc2)CCCCC1 [PRE-084, 2-[4-morpholinethyl]1-phenylcyclohexanecarboxylate hydrochloride]
reversal of potentiation of loperamide-induced antinociception by S1RA and 12 [5]: markedly reverse the effect of these compounds on loperamide-induced antinociception

c1ccc(-c2ccc(OCCCCN3CCCCC3)cc2)cc1 [Compound 9, 1-(4-([1,1′-Biphenyl]-4-yloxy)butyl)piperidine Oxalate]
Ki [1]: 33 nM | Ki [2]: 95 nM | σ2/σ1 ratio [3]: 0.3 | Ki [4]: 22 nM

OCCCN1CCC(c2ccncc2)CC1 [3-(4-(pyridin-4-yl)piperidin-1-yl)propan-1-ol, reference compound]
pKa ([6]; read-out: pKa1): 4.91 | pKa ([6]; read-out: pKa2): 8.84

CC1CCCN(CCCOc2ccc(-c3ccccc3)cc2)C1 (stereo not drawn) [Compound 1, 1-(3-([1,1′-Biphenyl]-4-yloxy)propyl)-3-methylpiperidine Oxalate]
Ki [1]: 17 nM | Ki [2]: 1.5 nM | σ2/σ1 ratio [3]: 11.3 | Ki [4]: 31 nM

c1ccc(Nc2ccc(OCCCN3CCC(c4ccncc4)CC3)cc2)cc1 [Compound 14, N-Phenyl-4-(3-(4-(pyridin-4-yl)piperidin-1-yl)propoxy)aniline Oxalate]
Ki [1]: 29 nM | Ki [2]: 3.3 nM | σ2/σ1 ratio [3]: 8.8 | Ki [4]: 69 nM

C=CC[N+]1(C)CC[C@]23c4c5ccc(O)c4O[C@H]2C(=O)CC[C@@]3(O)[C@H]1C5 (stereo partly drawn) [naloxone-methiodide]
reversal of potentiation of loperamide-induced antinociception by S1RA and 12 [5]: the effect of S1RA and 12 was also reversed

N#Cc1ccc(-c2ccc(OCCCN3CCN(c4ccncc4)CC3)cc2)cc1 [KSK94]
pK of equilibrium H2L+2 = H+ + HL+ [6, 8]: 6.25 | pK of equilibrium HL+ = H+ + L0 [6, 8]: 6.65 | free ligand [L] [6, 9]: 77.72% | monoprotonated form [HL+] [6, 9]: 20.56% | pKa ([6]; read-out: pKa1): 6.25 | pKa ([6]; read-out: pKa2): ~1 | pKa ([6]; read-out: pKa3): 6.65

OCCCN1CCNCC1 [3-(piperazin-1-yl)propan-1-ol, reference compound]
pKa ([6]; read-out: pKa1): 4.52 | pKa ([6]; read-out: pKa2): 9.14

c1ccc(Cc2ccc(OCCCN3CCC(c4ccncc4)CC3)cc2)cc1 [Compound 15, 4-(1-(3-(4-Benzylphenoxy)propyl)piperidin-4-yl)pyridine Oxalate]
Ki [1]: 9.9 nM | Ki [2]: 2.8 nM | σ2/σ1 ratio [3]: 3.5 | Ki [4]: 76.1 nM

OCCCN1CCCCC1 [3-(piperidin-1-yl)propan-1-ol, reference compound]
pKa ([6]; read-out: pKa): 9.73

OCCCN1CCN(c2ccncc2)CC1 [3-(4-(pyridin-4-yl)piperazin-1-yl)propan-1-ol, reference compound]
pKa ([6]; read-out: pKa1): 6.1 | pKa ([6]; read-out: pKa2): 1 | pKa ([6]; read-out: pKa3): 8.82

CC1CCN(CCCOc2ccc(-c3ccccc3)cc2)CC1 [Compound 2, 1-(3-([1,1′-Biphenyl]-4-yloxy)propyl)-4-methylpiperidine Oxalate]
Ki [1]: 16 nM | Ki [2]: 2.4 nM | σ2/σ1 ratio [3]: 6.7 | Ki [4]: 10.3 nM

c1ccc(Oc2ccc(OCCCN3CCC(c4ccncc4)CC3)cc2)cc1 [Compound 13, 4-(1-(3-(4-Phenoxyphenoxy)propyl)piperidin-4-yl)pyridine Oxalate]
Ki [1]: 4 nM | Ki [2]: 5.6 nM | σ2/σ1 ratio [3]: 0.7 | Ki [4]: 24.2 nM

N#Cc1ccc(-c2ccc(OCCCN3CCCCC3)cc2)cc1.O=C(O)C(=O)O [Compound 5, 4′-(3-(Piperidin-1-yl)propoxy)-[1,1′-biphenyl]-4-carbonitrile Oxalate]
Ki [1]: 47 nM | Ki [2]: 28 nM | σ2/σ1 ratio [3]: 1.7

CN(C)C(=O)C(CCN1CCC(O)(c2ccc(Cl)cc2)CC1)(c1ccccc1)c1ccccc1 [loperamide]
effect of loperamide alone on struggle response latency ([5]; 4 mg/kg s.c.): minimal (nonsignificant) increase in the struggle response latency

CCN1CCCC1CNC(=O)c1cc(S(N)(=O)=O)ccc1OC (stereo not drawn) [sulpiride, reference compound]
Papp at 5 h, 100 µM [7]: 0.05 ×10⁻⁶ cm/s

c1ccc(Oc2ccc(OCCCN3CCCCC3)cc2)cc1 [Compound 6, 1-(3-(4-Phenoxyphenoxy)propyl)piperidine Oxalate]
Ki [1]: 103 nM | Ki [2]: 18 nM | σ2/σ1 ratio [3]: 5.7 | Ki [4]: 2.7 nM

c1ccc(Cc2ccc(OCCCN3CCCCC3)cc2)cc1 [Compound 8, 1-(3-(4-Benzylphenoxy)propyl)piperidine Oxalate]
Ki [1]: 47 nM | Ki [2]: 5.5 nM | σ2/σ1 ratio [3]: 8.5
